Like-named read-outs stand apart in the source and are kept apart here.

This note sets out measurements from patent US11192890B2, “FGFR kinase inhibitors and pharmaceutical uses” (AUCKLAND UNISERVICES LIMITED, priority 2017, dated 2021).

For one data set, the target named is T1, FGFR1 (Homo sapiens, UniProt P11362).
T1 construct: purchased Invitrogen
Briefly: Isolated enzyme FRET-based Z-Lyte kinase inhibition assay. In kind it is biochemical. To be noted: means from 3 independent experiments; read-out: Isolate Enzyme Inhibition IC50, FGFR1. As for the experimental part:
(§1) FGFR1-4 and the Z-Lyte Kinase Assay Kit were purchased from Invitrogen. The concentration gradients from 5.1×10^−11 to 1.0×10^−6 mol/L were used for all the test compounds. The experiments were performed according to the instructions of the manufacturer.
(§2) FGFR1-4 isolated enzyme activity was determined using the FRET-based Z-Lyte kinase inhibition assay. The data are the means from 3 independent experiments.

A further data set addresses T2, FGFR2 (Homo sapiens, UniProt P21802).
T2 construct: purchased Invitrogen
The description is as above. Type of data set: biochemical. To be noted: means from 3 independent experiments; read-out: Isolate Enzyme Inhibition IC50, FGFR2. The procedure: as §1, §2

Another data set has as its target T3, FGFR3 (Homo sapiens, UniProt P22607).
T3 construct: purchased Invitrogen
The description is as above. Type of data set: biochemical. To be noted: means from 3 independent experiments; read-out: Isolate Enzyme Inhibition IC50, FGFR3. As for the experimental part: as §1, §2

Another data set concerns SUM52 cells. Put plainly: Oxic and anoxic anti-proliferative activity of the prodrugs. To be noted: for Hypoxic Cytotoxicity Ratio (HCR), SUM52: ratio of oxic and anoxic IC50.
Data set [1] concerns FGFR3 in SW780 cells (phospho-ERK1/2). Put plainly: Drug washout Western blot assay, SW780 cells. To be noted: SW780; 30 min exposure, 100 nM, with and without washout. Type of data set: cell-based. (Immunoblotting shows a protein as a band on a membrane.)
Where [2] appears, read: read-out: Cellular Anti-proliferative IC50, SUM52, Anoxic, 4 hours of anoxia, remainder of assay oxic.
Where [3] appears, read: read-out: Cellular Anti-proliferative IC50, SUM52, Oxic, oxic conditions.

T3 sequence (P22607 23-806): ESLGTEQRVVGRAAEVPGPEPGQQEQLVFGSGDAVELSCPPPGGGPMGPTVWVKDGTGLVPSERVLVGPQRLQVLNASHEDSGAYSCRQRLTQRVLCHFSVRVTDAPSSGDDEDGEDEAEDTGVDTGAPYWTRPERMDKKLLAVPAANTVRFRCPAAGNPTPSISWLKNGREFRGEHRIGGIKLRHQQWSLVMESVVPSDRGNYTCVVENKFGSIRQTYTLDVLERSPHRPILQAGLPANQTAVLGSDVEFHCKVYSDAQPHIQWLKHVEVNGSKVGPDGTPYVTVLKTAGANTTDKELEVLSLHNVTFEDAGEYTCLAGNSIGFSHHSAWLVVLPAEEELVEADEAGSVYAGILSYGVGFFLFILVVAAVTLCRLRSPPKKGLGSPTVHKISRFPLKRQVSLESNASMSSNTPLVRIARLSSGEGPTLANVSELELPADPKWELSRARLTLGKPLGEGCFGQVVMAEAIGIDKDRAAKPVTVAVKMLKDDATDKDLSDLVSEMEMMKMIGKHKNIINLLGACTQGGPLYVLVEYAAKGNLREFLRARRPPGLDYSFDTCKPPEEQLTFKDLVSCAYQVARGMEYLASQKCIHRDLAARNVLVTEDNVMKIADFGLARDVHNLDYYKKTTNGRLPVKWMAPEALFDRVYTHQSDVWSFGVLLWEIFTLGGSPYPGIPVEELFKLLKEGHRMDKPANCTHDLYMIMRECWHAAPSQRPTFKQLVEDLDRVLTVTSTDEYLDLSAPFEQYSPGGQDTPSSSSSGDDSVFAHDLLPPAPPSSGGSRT
T1 sequence (P11362 22-822): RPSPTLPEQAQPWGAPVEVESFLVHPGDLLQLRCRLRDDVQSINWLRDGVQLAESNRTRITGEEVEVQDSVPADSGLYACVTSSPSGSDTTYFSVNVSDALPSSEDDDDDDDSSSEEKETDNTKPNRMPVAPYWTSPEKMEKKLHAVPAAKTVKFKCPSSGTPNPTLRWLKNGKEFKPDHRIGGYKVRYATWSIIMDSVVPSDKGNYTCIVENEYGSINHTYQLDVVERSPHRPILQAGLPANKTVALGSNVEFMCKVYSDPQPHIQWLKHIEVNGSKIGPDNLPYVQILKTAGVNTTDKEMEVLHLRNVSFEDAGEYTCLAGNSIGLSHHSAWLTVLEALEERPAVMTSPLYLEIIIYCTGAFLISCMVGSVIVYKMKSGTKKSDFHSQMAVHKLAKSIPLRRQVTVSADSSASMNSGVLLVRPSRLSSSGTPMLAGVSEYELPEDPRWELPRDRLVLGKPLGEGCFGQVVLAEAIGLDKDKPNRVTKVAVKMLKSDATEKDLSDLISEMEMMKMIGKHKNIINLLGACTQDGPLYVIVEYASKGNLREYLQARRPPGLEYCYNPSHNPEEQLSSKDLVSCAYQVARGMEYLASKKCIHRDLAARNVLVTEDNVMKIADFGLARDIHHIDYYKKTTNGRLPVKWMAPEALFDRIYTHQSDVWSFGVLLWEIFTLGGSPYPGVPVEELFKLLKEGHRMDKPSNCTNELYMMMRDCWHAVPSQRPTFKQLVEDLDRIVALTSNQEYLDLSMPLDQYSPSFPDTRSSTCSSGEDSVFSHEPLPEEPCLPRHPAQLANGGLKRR
T2 sequence (P21802 22-821): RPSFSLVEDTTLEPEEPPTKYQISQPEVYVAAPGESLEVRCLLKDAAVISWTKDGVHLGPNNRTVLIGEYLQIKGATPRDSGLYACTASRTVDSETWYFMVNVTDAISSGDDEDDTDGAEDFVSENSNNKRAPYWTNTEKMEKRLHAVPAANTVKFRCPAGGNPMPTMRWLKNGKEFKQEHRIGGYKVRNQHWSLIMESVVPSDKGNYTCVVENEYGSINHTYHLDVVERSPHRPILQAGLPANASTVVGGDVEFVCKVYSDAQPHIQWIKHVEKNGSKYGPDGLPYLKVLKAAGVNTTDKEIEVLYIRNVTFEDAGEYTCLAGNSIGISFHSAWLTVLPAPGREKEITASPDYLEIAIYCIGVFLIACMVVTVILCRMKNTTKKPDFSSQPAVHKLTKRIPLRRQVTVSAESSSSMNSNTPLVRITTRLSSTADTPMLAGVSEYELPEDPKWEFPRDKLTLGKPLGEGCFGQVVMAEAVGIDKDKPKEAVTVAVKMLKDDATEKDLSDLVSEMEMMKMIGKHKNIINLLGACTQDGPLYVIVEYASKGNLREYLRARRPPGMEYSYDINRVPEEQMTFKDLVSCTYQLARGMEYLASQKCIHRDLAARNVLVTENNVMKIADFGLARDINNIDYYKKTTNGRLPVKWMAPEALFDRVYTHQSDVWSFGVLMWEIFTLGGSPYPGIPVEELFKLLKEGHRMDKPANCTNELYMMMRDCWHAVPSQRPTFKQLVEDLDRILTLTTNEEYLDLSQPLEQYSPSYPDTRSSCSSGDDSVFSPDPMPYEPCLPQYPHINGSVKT

In the case of `CNc1ncc2cc(-c3c(Cl)c(OC)cc(OC)c3Cl)c(=O)n(C3CCN(C(=O)/C=C/CN(C)C)CC3)c2n1` [Compound 132, (E)-6-(2,6-dichloro-3,5-dimethoxyphenyl)-8-(1-(4-(dimethylamino)but-2-enoyl)piperidin-4-yl)-2-(methylamino)pyrido[2,3-d]pyrimidin-7(8H)-one], the IC50 (commonly the concentration that gives 50% inhibition) at FGFR1 came to 0.7 nM; on FGFR2 it was 1 nM; at FGFR3, 4.9 nM.
On to `COc1ccc(Nc2ncc3c(n2)N(C2CCN(C(=O)/C=C/C[N+](C)(C)Cc4c([N+](=O)[O-])ncn4C)CC2)C(=O)N(c2c(Cl)c(OC)cc(OC)c2Cl)C3)cc1.[Br-]` [Compound 206, (E)-4-(4-(3-(2,6-dichloro-3,5-dimethoxyphenyl)-7-((4-methoxyphenyl)amino)-2-oxo-3,4-dihydropyrimido[4,5-d]pyrimidin-1(2H)-yl)piperidin-1-yl)-N,N-dimethyl-N-((1-methyl-4-nitro-1H-imidazol-5-yl)methyl)-4-oxobut-2-en-1-aminium bromide], for which the “Hypoxic Cytotoxicity Ratio (HCR), SUM52” value in the data set with SUM52 cells worked out at 8. The IC50 with SUM52 cells (setting [2]) amounted to 1 nM; with SUM52 cells (setting [3]), 8 nM.
Regarding `COc1cc(OC)c(Br)c(N2Cc3cnc(NC(C)C)nc3N(C3CCN(C(=O)/C=C/C[N+](C)(C)Cc4c([N+](=O)[O-])ncn4C)CC3)C2=O)c1Br.[Br-]` [Compound 207, (E)-4-(4-(3-(2,6-dibromo-3,5-dimethoxyphenyl)-7-(isopropylamino)-2-oxo-3,4-dihydropyrimido[4,5-d]pyrimidin-1(2H)-yl)piperidin-1-yl)-N,N-dimethyl-N-((1-methyl-4-nitro-1H-imidazol-5-yl)methyl)-4-oxobut-2-en-1-aminium bromide], the “Hypoxic Cytotoxicity Ratio (HCR), SUM52” value with SUM52 cells is given as 53. The IC50 in the data set with SUM52 cells (setting [2]) worked out at 8 nM; with SUM52 cells (setting [3]), 404 nM.
On to `CNc1ncc2cc(-c3c(Cl)c(OC)cc(OC)c3Cl)c(=O)n(Cc3cccc(NC(=O)/C=C/CN(C)C)c3)c2n1` [Compound 143, (E)-N-(3-((6-(2,6-dichloro-3,5-dimethoxyphenyl)-2-(methylamino)-7-oxopyrido[2,3-d]pyrimidin-8(7H)-yl)methyl)phenyl)-4-(dimethylamino)but-2-enamide], for which the IC50 on FGFR1 was 0.8 nM; on FGFR2, 0.9 nM; at FGFR3, 8 nM.
Regarding `COc1cc(OC)c(Cl)c(-c2cc3cnc(Nc4ccc(F)cc4)nc3n(C3CCN(C(=O)/C=C/CN(C)C)CC3)c2=O)c1Cl` [Compound 139, (E)-6-(2,6-dichloro-3,5-dimethoxyphenyl)-8-(1-(4-(dimethylamino)but-2-enoyl)piperidin-4-yl)-2-((4-fluorophenyl)amino)pyrido[2,3-d]pyrimidin-7(8H)-one], the IC50 at FGFR1 was found to be 0.3 nM; on FGFR2, 1.1 nM; on FGFR3, 6 nM.
As to `C=CC(=O)N1CCC(N2C(=O)N(c3c(Cl)c(OC)cc(OC)c3Cl)Cc3cnc(NC)nc32)CC1` [Compound 156, 1-(1-acryloylpiperidin-4-yl)-3-(2,6-dichloro-3,5-dimethoxyphenyl)-7-(methylamino)-3,4-dihydropyrimido[4,5-d]pyrimidin-2(1H)-one], the “reversible or irreversible inhibition of FGFR3 in cells” value in data set [1] was “potent reversible inhibitors”.
Consider `COc1cc(OC)c(Cl)c(-c2cc3cnc(NC(C)C)nc3n(Cc3cccc(NC(=O)/C=C/CN(C)C)c3)c2=O)c1Cl` [Compound 145, (E)-N-(3-((6-(2,6-dichloro-3,5-dimethoxyphenyl)-2-(isopropylamino)-7-oxopyrido[2,3-d]pyrimidin-8(7H)-yl)methyl)phenyl)-4-(dimethylamino)but-2-enamide], for which the IC50 at FGFR1 was 1.3 nM; at FGFR2 it was 2.5 nM; at FGFR3, 6.9 nM.
The matching figures for `COc1cc(OC)c(Cl)c(-c2cc3cnc(NC4CCCCC4)nc3n(C3CCN(C(=O)/C=C/CN(C)C)CC3)c2=O)c1Cl` [Compound 136, (E)-2-(cyclohexylamino)-6-(2,6-dichloro-3,5-dimethoxyphenyl)-8-(1-(4-(dimethylamino)but-2-enoyl)piperidin-4-yl)pyrido[2,3-d]pyrimidin-7(8H)-one]: 1.1 nM, 1.3 nM and 6.7 nM.
The matching figures for `CNc1ncc2cc(-c3c(Cl)c(OC)cc(OC)c3Cl)c(=O)n(C(C)c3cccc(NC(=O)/C=C/CN(C)C)c3)c2n1` (stereo not shown) [Compound 146, (E)-N-(3-(1-(6-(2,6-dichloro-3,5-dimethoxyphenyl)-2-(methylamino)-7-oxopyrido[2,3-d]pyrimidin-8(7H)-yl)ethyl)phenyl)-4-(dimethylamino)but-2-enamide]: 1.2 nM, 1.2 nM and 6.2 nM.
For `CNc1ncc2c(n1)N(Cc1cccc(NC(=O)/C=C/CN(C)C)c1)C(=O)N(c1c(Cl)c(OC)cc(OC)c1Cl)C2` [Compound 127, (E)-N-(3-((3-(2,6-dichloro-3,5-dimethoxyphenyl)-7-(methylamino)-2-oxo-3,4-dihydropyrimido[4,5-d]pyrimidin-1(2H)-yl)methyl)phenyl)-4-(dimethylamino)but-2-enamide], the IC50 is 1 nM on FGFR1, 2.7 nM at FGFR2 and 35 nM at FGFR3.
Regarding `CNc1ncc2c(n1)N(C1CCN(C(=O)/C=C/CN3CCCCC3)CC1)C(=O)N(c1c(Cl)c(OC)cc(OC)c1Cl)C2` [Compound 124, (E)-3-(2,6-dichloro-3,5-dimethoxyphenyl)-7-(methylamino)-1-(1-(4-(piperidin-1-yl)but-2-enoyl)piperidin-4-yl)-3,4-dihydropyrimido[4,5-d]pyrimidin-2(1H)-one], the values for the IC50 on FGFR1, at FGFR2 and at FGFR3 were 0.8 nM, 1.9 nM and 12 nM, respectively.
As for `COc1cc(OC)c(Cl)c(-c2cc3cnc(NC4CCOCC4)nc3n(C3CCN(C(=O)/C=C/CN(C)C)CC3)c2=O)c1Cl` [Compound 135, (E)-6-(2,6-dichloro-3,5-dimethoxyphenyl)-8-(1-(4-(dimethylamino)but-2-enoyl)piperidin-4-yl)-2-((tetrahydro-2H-pyran-4-yl)amino)pyrido[2,3-d]pyrimidin-7(8H)-one], the IC50 at FGFR1 was 0.9 nM; on FGFR2, 1.2 nM; at FGFR3, 6.3 nM.
`COc1cc(OC)c(Br)c(-c2cc3cnc(Nc4ccccc4)nc3n(C3CCN(C(=O)/C=C/C[N+](C)(C)Cc4c([N+](=O)[O-])ncn4C)CC3)c2=O)c1Br.[Br-]` [Compound 212, (E)-4-(4-(6-(2,6-dibromo-3,5-dimethoxyphenyl)-7-oxo-2-(phenylamino)pyrido[2,3-d]pyrimidin-8(7H)-yl)piperidin-1-yl)-N,N-dimethyl-N-((1-methyl-4-nitro-1H-imidazol-5-yl)methyl)-4-oxobut-2-en-1-aminium bromide]: in the data set with SUM52 cells, the “Hypoxic Cytotoxicity Ratio (HCR), SUM52” value is given as 8. Also, the results for the IC50 in the data set with SUM52 cells (setting [2]) and in the data set on SUM52 cells (setting [3]) were 2 nM and 13 nM, respectively.
Take `COc1cc(OC)c(Br)c(-c2cc3cnc(NC(C)C)nc3n(C3CCN(C(=O)/C=C/C[N+](C)(C)Cc4c([N+](=O)[O-])ncn4C)CC3)c2=O)c1Br.[Br-]` [Compound 210, (E)-4-(4-(6-(2,6-dibromo-3,5-dimethoxyphenyl)-2-(isopropylamino)-7-oxopyrido[2,3-d]pyrimidin-8(7H)-yl)piperidin-1-yl)-N,N-dimethyl-N-((1-methyl-4-nitro-1H-imidazol-5-yl)methyl)-4-oxobut-2-en-1-aminium bromide]: the “Hypoxic Cytotoxicity Ratio (HCR), SUM52” value in the data set on SUM52 cells is 9. Moreover, the IC50 with SUM52 cells (setting [2]) was found to be 4 nM; in the data set on SUM52 cells (setting [3]), 35 nM.
